Results: patent publication US20240124442A1, “TRICYCLIC-AMIDO-BICYCLIC PRMT5 INHIBITORS” (AMGEN INC., priority 2021, published 2024)
pIC50: −log10 of the molar value.

Key:
HCT116 MTAP null cells = assay: HCT116 MTAP null cell line proliferation / cell viability (CellTiter-Glo, 6 days); format: cell-based; conditions: for pIC50: 144 h, HCT116 MTAP null cells, 6 days treatment, CellTiter-Glo cell viability, read-out: HCT-116 MTAP null IC50; for relative potency of the enantiomers (measured by IC50 in HCT116 MTAP null cell viability assay): comparison of the two enantiomers separated by SFC, used to assign (S)/(R)
Procedure, shortened: (§1)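 CellTiter-Glo luminescence read after 6 days of compound exposure in parental and MTAP-null HCT116 cells grown in RPMI 1640/10% FBS. Dilution series: 1:3 steps, 8–9 points, top 1 or 10 μM; or 1:2 steps, 22 points, top 10 or 50 μM. IC50 = curve transit through 50% of control.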

HCT116 WT cells = assay: HCT116 WT (parent) cell line proliferation / cell viability (CellTiter-Glo, 6 days); format: cell-based; conditions: Homo sapiens, HCT-116, 144 h, 6 days treatment
Procedure, shortened: as §1

| Structure (SMILES) | pIC50 (HCT116 MTAP null cells) | pIC50 (HCT116 WT cells) | relative potency of the enantiomers (measured by IC50 in HCT116 MTAP null cell viability assay) (HCT116 MTAP null cells) |
| --- | --- | --- | --- |
| CN(C(=O)c1ccc2nc(N)c3cnn(C)c3c2c1)[C@@H]1COc2cc(C3=CCC(F)(F)CC3)ccc21 [Example 619, 4-amino-N-((3S)-6-(4,4-difluoro-1-cyclohexen-1-yl)-2,3-dihydro-1-benzofuran-3-yl)-N,1-dimethyl-1H-pyrazolo[4,3-c]quinoline-8-carboxamide] | 7.77 | 6.19 |  |
| CN(C(=O)c1ccc2nc(N)c3cnn(C)c3c2c1)[C@@H]1COc2cc(-c3ccc(F)nc3)ccc21 [Example 638, 4-amino-N-((3S)-6-(6-fluoro-3-pyridinyl)-2,3-dihydro-1-benzofuran-3-yl)-N,1-dimethyl-1H-pyrazolo[4,3-c]quinoline-8-carboxamide] | 8.22 | 6.23 |  |
| C[C@H]1OCc2c1c(N)nc1ccc(C(=O)N(C)[C@@H]3COc4cc(C(F)(F)F)ccc43)cc21 (single isomer, unassigned) [Example 537] | 7.68 | 6.06 |  |
| CN(C(=O)c1ccc2nc(N)c3cnn(C)c3c2c1)[C@@H]1COc2cc(-c3ccc(F)nc3F)ccc21 [Example 642, 4-amino-N-((3S)-6-(2,6-difluoro-3-pyridinyl)-2,3-dihydro-1-benzofuran-3-yl)-N,1-dimethyl-1H-pyrazolo[4,3-c]quinoline-8-carboxamide] | 8.30 | 6.27 |  |
| CN(C(=O)c1cc2c3c(c(N)nc2cc1Cl)COC3)[C@H]1COc2cc(C(F)(F)F)cc(F)c21 (single isomer, unassigned) [Example 567] | 6.50 | 5.01 |  |
| CN(C(=O)c1ccc2nc(N)c3c(c2c1)COC3)[C@@H]1COc2cc(C(F)(F)F)ccc21 (single isomer, unassigned) [Example 317] | 7.62 | 5.93 | more potent |
| CN(C(=O)c1cc2c(cn1)nc(N)c1cnn(C)c12)[C@@H]1COCc2c1ccc(C(F)(F)F)c2F (single isomer, unassigned) [Example 422] | 8.00 | 6.62 |  |
| CN(C(=O)c1ccc2nc(N)c3cnn(C)c3c2c1)[C@@H]1COc2cc(CO)ccc21 [Example 686, (S)-4-amino-N-(6-(hydroxymethyl)-2,3-dihydrobenzofuran-3-yl)-N,1-dimethyl-1H-pyrazolo[4,3-c]quinoline-8-carboxamide] | 6.89 | 4.94 |  |
| [2H]C([2H])([2H])N(C(=O)c1ccc2nc(N)c3c(c2c1)COC3)[C@H]1COc2cc(C(F)(F)F)ccc21 (single isomer, unassigned) [Example 321] | 5.58 | 4.70 |  |
| Cc1ncc(-c2ccc3c(c2)OC[C@H]3N(C)C(=O)c2ccc3nc(N)c4cnn(C)c4c3c2)cn1 [Example 636, 4-amino-N,1-dimethyl-N-((3S)-6-(2-methyl-5-pyrimidinyl)-2,3-dihydro-1-benzofuran-3-yl)-1H-pyrazolo[4,3-c]quinoline-8-carboxamide] | 7.89 | 5.71 |  |
| CN(C(=O)c1ccc2nc(N)c3c(c2c1)COC3)C1COc2cc(C#N)ccc21 (racemic) [Example 201, 4-amino-N-((3R)-6-cyano-2,3-dihydro-1-benzofuran-3-yl)-N-methyl-1,3-dihydrofuro[3,4-c]quinoline-8-carboxamide and 4-amino-N-((3S)-6-cyano-2,3-dihydro-1-benzofuran-3-yl)-N-methyl-1,3-dihydrofuro[3,4-c]quinoline-8-carboxamide] | 6.83 | 5.24 |  |
| CN(C(=O)c1cc2c(cc1F)nc(N)c1cnn(C)c12)[C@@H]1COCc2cc(C(F)(F)F)ccc21 [Example 506, 4-amino-7-fluoro-N,1-dimethyl-N-((4S)-7-(trifluoromethyl)-3,4-dihydro-1H-2-benzopyran-4-yl)-1H-pyrazolo[4,3-c]quinoline-8-carboxamide] | 8.40 | 7.47 |  |
| CN(C(=O)c1cc2c3c(c(N)nc2cc1F)COC3)[C@@H]1COc2cc(-c3cnn(C)c3)ccc21 [Example 214, 4-amino-7-fluoro-N-methyl-N-((3S)-6-(1-methyl-1H-pyrazol-4-yl)-2,3-dihydro-1-benzofuran-3-yl)-1,3-dihydrofuro[3,4-c]-quinoline-8-carboxamide] | 7.54 | 5.69 |  |
| CN(C(=O)c1cc2c(cc1Cl)nc(N)c1cnn(C)c12)[C@@H]1COc2nc(C(F)(F)F)ccc21 (single isomer, unassigned) [Example 387] | 8.30 | 6.87 |  |
| CN(C(=O)c1cc2c(cn1)nc(N)c1ccncc12)[C@@H]1COCc2nc(C(F)(F)F)ccc21 [Example 281, 5-amino-N-methyl-N-((5S)-2-(trifluoromethyl)-5,8-dihydro-6H-pyrano[3,4-b]pyridin-5-yl)pyrido[4,3-c][1,7]naph-thyridine-9-carboxamide] | 7.64 | 6.21 |  |
| CN(C(=O)c1cc2c3c(c(N)nc2cc1F)COC3)[C@H]1CCc2nc(C(F)(F)F)ccc21 (single isomer, unassigned) [Example 350] | 5.50 | 4.30 |  |
| CN(C(=O)c1ccc2nc(N)c3cnn(C)c3c2c1)[C@@H]1COc2cc(C(F)(F)F)ccc21 [Example 473, 4-amino-N,1-dimethyl-N-((3S)-6-(trifluoromethyl)-2,3-dihydro-1-benzofuran-3-yl)-1H-pyrazolo[4,3-c]quinoline-8-carboxamide] | 7.82 | 6.46 |  |

| Structure (SMILES) | pIC50 (HCT116 MTAP null cells) | pIC50 (HCT116 WT cells) | relative potency of the enantiomers (measured by IC50 in HCT116 MTAP null cell viability assay) (HCT116 MTAP null cells) |
| --- | --- | --- | --- |
| CN(C(=O)c1cc2c(cc1F)nc(N)c1cnn(C)c12)[C@@H]1COc2cc(OC(F)F)ccc21 (single isomer, unassigned) [Example 569] | 8.22 | 6.65 |  |
| CN(C(=O)c1cc2c3c(c(N)nc2cn1)COC3)[C@@H]1COc2nc(C(F)(F)F)ccc21 (single isomer, unassigned) [Example 335] | 6.57 | 4.96 |  |
| CN(C(=O)c1ccc2nc(N)c3c(c2c1)COC3)[C@H]1COc2cc(S(C)(=O)=O)ccc21 (single isomer, unassigned) [Example 324] | 5.27 | 4.30 |  |
| CN(C(=O)c1cc2c(cn1)nc(N)c1ncncc12)[C@@H]1COCc2nc(C(F)(F)F)ccc21 [Example 282, 5-amino-N-methyl-N-((5S)-2-(trifluoromethyl)-5,8-dihydro-6H-pyrano[3,4-b]pyridin-5-yl)-pyrimido[4,5-c][1,7]naphthyr-idine-9-carboxamide] | 6.32 | 5.22 |  |
| CN(C(=O)c1ccc2nc(N)c3cnn(C)c3c2c1)[C@@H]1COc2cc(-c3cnn(C4CC4)c3)ccc21 [Example 640, 4-amino-N-((3S)-6-(1-cyclopropyl-1H-pyrazol-4-yl)-2,3-dihydro-1-benzofuran-3-yl)-N,1-dimethyl-1H-pyrazolo[4,3-c]quinoline-8-carboxamide] | 7.80 | 5.69 |  |
| CN(C(=O)c1ccc2nc(N)c3c(c2c1)COC3)[C@H]1COCc2cc(Br)ccc21 (single isomer, unassigned) [Example 609] | 6.22 | 5.11 |  |
| CN(C(=O)c1ccc2nc(N)c3cnn(C)c3c2c1)[C@@H]1COc2cc(-c3ccc(OC(F)(F)F)cc3)ccc21 [Example 658, 4-amino-N,1-dimethyl-N-((3S)-6-(4-(trifluoromethoxy)phenyl)-2,3-dihydro-1-benzofuran-3-yl)-1H-pyrazolo[4,3-c]quinoline-8-carboxamide] | 7.38 | 6.20 |  |
| Cc1n[nH]c2c1c(N)nc1ccc(C(=O)N(C)[C@@H]3COCc4nc(C(F)(F)F)ccc43)cc12 [Example 308, 4-amino-N,3-dimethyl-N-((5S)-2-(trifluoromethyl)-5,8-dihydro-6H-pyrano[3,4-b]pyridin-5-yl)-1H-pyrazolo[4,3-c]quinoline-8-carboxamide] | 7.12 | 5.38 |  |
| COc1ccc2c(c1)COC[C@H]2N(C)C(=O)c1cc2c3c(c(N)nc2cn1)COC3 (single isomer, unassigned) [Example 582] | 7.12 | 5.25 |  |
| Cc1noc2c1c(N)nc1ccc(C(=O)N(C)[C@@H]3COCc4cc(C(F)(F)F)ccc43)cc12 [Example 498, 4-amino-N,3-dimethyl-N-((4S)-7-(trifluoromethyl)-3,4-dihydro-1H-2-benzopyran-4-yl)[1,2]oxazolo[4,5-c]quinoline-8-carboxamide] | 6.73 | 5.04 |  |
| CN(C(=O)c1cc2c(cc1F)nc(N)c1cnn(C)c12)[C@@H]1COCc2cc(C(F)(F)F)cnc21 (single isomer, unassigned) [Example 599] | 7.19 | 5.42 |  |
| C[C@H]1OC[C@@H](N(C)C(=O)c2ccc3nc(N)c4c(cnn4C)c3c2)c2ccc(C(F)(F)F)cc21 (single isomer, unassigned) [Example 601] | 7.68 | 5.68 |  |
| CN(C(=O)c1ccc2nc(N)c3cnn(C)c3c2c1)[C@@H]1COc2cc(-c3cc(C(F)(F)F)ccc3F)ccc21 [Example 660, 4-amino-N-((3S)-6-(2-fluoro-5-(trifluoromethyl)phenyl)-2,3-dihydro-1-benzofuran-3-yl)-N,1-dimethyl-1H-pyrazolo[4,3-c]quinoline-8-carboxamide] | 7.82 | 6.18 |  |
| CN(C(=O)c1cc2c3c(c(N)nc2cc1F)COC3)[C@@H]1COc2cc(S(C)(=O)=O)ccc21 (single isomer, unassigned) [Example 353] | 7.49 | 5.86 |  |
| CN(C(=O)c1ccc2nc(N)c3c(c2c1)COC3)[C@H]1COc2cc(C(F)(F)F)ccc21 (single isomer, unassigned) [Example 318] | 5.87 | 5.00 | less potent |
| CN(C(=O)c1cc2c3c(c(N)nc2cc1F)COC3)[C@@H]1COc2cc(C(F)(F)F)ccc21 (single isomer, unassigned) [Example 552] | 7.47 | 5.91 |  |
